Like-named read-outs stand apart in the source and are kept apart here.
Legend:
[1] = system: Osteoblasts (Calvarial cells); experiment: Cytotoxicity test (MTT); conditions: 1 μM compound, 72 hours, in comparison with vehicle control
[2] = system: Osteoblasts (Calvarial cells); experiment: Alkaline phosphatase (ALP) activity in osteoblasts (Calvarial cells); type: cell-based, mice; conditions: 1 μM compound, 3 days
Method: Differentiation and activity of osteoblasts were indirectly evaluated by measuring an ALP activity having a close relationship with osteogenesis.
Osteoblasts (Calvarial cells) prepared in Experimental Example 1 and MC3T3-E1 cells (available from RIKEN Cell Bank, Japan) were collected in α-MEM supplemented with 10% FBS, followed by cell counting. The cells were dispensed into 24-well cultureware at a density of 2×10^4 cells/well. After culturing of the cells for 24 hours, the culture media were discarded and replaced with fresh media in which test compounds were diluted to a concentration of 1 μM (1 mL/well). In addition, the vehicle control group containing 0.1% DMSO was also treated. […] When the experiment was terminated, the supernatant was removed and the cells were washed three times with cold phosphate buffer at 4°. 0.2% Triton X-100 was added to the washed cells which were then subjected to three cycles of freezing at −70° and thawing at room temperature for the complete lysis of cells. The cell extracts were pooled and centrifuged to collect the cell supernatant which was used for the measurement of ALP activity and proteins. The protein concentration was measured using a BCA assay kit (manufactured by Sigma-Aldrich). For the measurement of ALP activity, p-nitrophenylphosphate was added to the cell supernatant which was then incubated at 37° for 30 minutes, and the reaction was terminated with the addition of 50 μL of 0.2N sodium hydroxide. The standard curve was plotted at the absorbance of 405 nm using p-nitrophenol as a standard material and then the absorbance of test materials thus reacted was measured to determine the production amount of p-nitrophenol.
The ALP activity was calculated by dividing the amount of p-nitrophenol produced from each test material by the protein amount and the reaction time. Therefore, the unit of ALP activity was given in terms of p-nitrophenol/μg protein/min. The results are given in Tables 28-1 and 28-2 where the ALP activity unit of each test material was given in terms of % change through the comparison between the individual test materials and the vehicle control group.

[3] = system: Osteoblasts (Calvarial cells); conditions: ICR, mouse, 72 h, 1 μM

## CC1=NCCN1c1ccc([N+](=O)[O-])c(Nc2ccc(C)cc2)n1 [Compound 6, 2-(4-methylphenylamino)-6-[(2-methyl-4,5-dihydro)imidazol-1-yl]-3-nitropyridine]
[1]
  Cell viability (%) Calvarial cell: 94%
[2]
  ALP activity (1 μM, % of Control) Calvarial cell: 116 % of Control

## CC1=NCCN1c1ccc([N+](=O)[O-])c(Nc2ccc(C(C)(C)C)cc2)n1 [Compound 35, 2-[4-(t-butyl)phenylamino]-6-[(2-methyl-4,5-dihydro)imidazol-1-yl]-3-nitropyridine]
[1]
  Cell viability (%) Calvarial cell: 96%
[2]
  ALP activity (1 μM, % of Control) Calvarial cell: 132 % of Control

## CCN(CCO)c1ccc([N+](=O)[O-])c(Nc2ccc(C#N)cc2)n1 [Compound 51, 2-(4-cyanophenylamino)-6-[(N-ethyl-2-hydroxy)ethylamino]-3-nitropyridine]
[1]
  Cell viability (%) Calvarial cell: 100%
[2]
  ALP activity (1 μM, % of Control) Calvarial cell: 116 % of Control

## CCN(CCO)c1ccc([N+](=O)[O-])c(Nc2ccc(N3CCOCC3)cc2)n1 [Compound 118, 2-(4-morpholinophenylamino)-6-[(N-ethyl-2-hydroxy)ethylamino]-3-nitropyridine]
[1]
  Cell viability (%) Calvarial cell: 102%
[2]
  ALP activity (1 μM, % of Control) Calvarial cell: 111 % of Control

## CC(C)CNc1ccc([N+](=O)[O-])c(Nc2ccc(F)c(F)c2)n1 [Compound 124, 2-[(3,4-difluoro)phenylamino]-6-(isobutylamino)-3-nitropyridine]
[3]
  Cell viability (%) Calvarial cell: 106%

## O=[N+]([O-])c1ccc(N2CCC(O)CC2)nc1Nc1ccc(F)c(F)c1 [Compound 126, 2-[(3,4-difluoro)phenylamino]-6-(4-hydroxypiperidino)-3-nitropyridine]
[3]
  Cell viability (%) Calvarial cell: 95%

## CN1CCN(c2ccc([N+](=O)[O-])c(Nc3ccc(F)c(F)c3)n2)CC1 [Compound 128, 2-[(3,4-difluoro)phenylamino]-6-(4-methylpiperazin-1-yl)-3-nitropyridine]
[3]
  Cell viability (%) Calvarial cell: 87%

## O=[N+]([O-])c1ccc(N2CCOCC2)nc1Nc1ccc(F)c(F)c1 [Compound 129, 2-[(3,4-difluoro)phenylamino]-6-morpholino-3-nitropyridine]
[3]
  Cell viability (%) Calvarial cell: 88%

## NC1CCN(c2ccc([N+](=O)[O-])c(Nc3ccc(F)c(F)c3)n2)CC1 [Compound 130, 2-[(3,4-difluoro)phenylamino]-6-(4-aminopiperidino)-3-nitropyridine]
[3]
  Cell viability (%) Calvarial cell: 101%

## O=[N+]([O-])c1ccc(NCc2ccncc2)nc1Nc1ccc(F)c(F)c1 [Compound 131, 2-[(3,4-difluoro)phenylamino]-6-[(4-pyridyl)methylamino]-3-nitropyridine]
[3]
  Cell viability (%) Calvarial cell: 100%

## O=[N+]([O-])c1ccc(N2CCC(O)CC2)nc1Nc1ccc(-c2csc(C3CCCCC3)n2)cc1 [Compound 155, 2-[4-(2-cyclohexylthiazol-4-yl)phenylamino]-6-(4-hydroxypiperidino)-3-nitropyridine]
[3]
  Cell viability (%) Calvarial cell: 105%

## CC(C)c1nccn1-c1ccc([N+](=O)[O-])c(Nc2ccc(-c3csc(C4CCCCC4)n3)cc2)n1 [Compound 157, 2-[4-(2-cyclohexylthiazol-4-yl)phenylamino]-6-[(2-isopropyl)imidazol-1-yl]-3-nitropyridine]
[3]
  Cell viability (%) Calvarial cell: 115%

## O=[N+]([O-])c1ccc(N2CCNCC2)nc1Nc1ccc(-c2csc(C3CCCCC3)n2)cc1 [Compound 158, 2-[4-(2-cyclohexylthiazol-4-yl)phenylamino]-6-(piperazin-1-yl)-3-nitropyridine]
[3]
  Cell viability (%) Calvarial cell: 88%

## O=[N+]([O-])c1ccc(N2CCOCC2)nc1Nc1ccc(-c2csc(C3CCCCC3)n2)cc1 [Compound 160, 2-[4-(2-cyclohexylthiazol-4-yl)phenylamino]-6-morpholino-3-nitropyridine]
[3]
  Cell viability (%) Calvarial cell: 105%

## O=[N+]([O-])c1ccc(NCc2cccnc2)nc1Nc1ccc(-c2csc(C3CCCCC3)n2)cc1 [Compound 162, 2-[4-(2-cyclohexylthiazol-4-yl)phenylamino]-6-[(3-pyridyl)methylamino]-3-nitropyridine]
[3]
  Cell viability (%) Calvarial cell: 67%

## O=[N+]([O-])c1ccc(NCCc2ccccn2)nc1Nc1ccc(-c2csc(C3CCCCC3)n2)cc1 [Compound 164, 2-[4-(2-cyclohexylthiazol-4-yl)phenylamino]-6-[2-(2-pyridyl)ethylamino]-3-nitropyridine]
[3]
  Cell viability (%) Calvarial cell: 104%

## CCCCNc1ccc([N+](=O)[O-])c(Nc2ccc(-c3csc(C4CCCCC4)n3)cc2)n1 [Compound 165, 2-[4-(2-cyclohexylthiazol-4-yl)phenylamino]-6-(n-butylamino)-3-nitropyridine]
[3]
  Cell viability (%) Calvarial cell: 102%

## CNc1ccc([N+](=O)[O-])c(Nc2ccc(N3CCOCC3)c(F)c2)n1 [Compound 191, 2-[(3-fluoro-4-morpholino)phenylamino]-6-(methylamino)-3-nitropyridine]
[1]
  Cell viability (%) Calvarial cell: 97%
[2]
  ALP activity (1 μM, % of Control) Calvarial cell: 156 % of Control

## CC(C)Nc1ccc([N+](=O)[O-])c(Nc2ccc(N3CCOCC3)c(F)c2)n1 [Compound 192, 2-[(3-fluoro-4-morpholino)phenylamino]-6-(isopropylamino)-3-nitropyridine]
[1]
  Cell viability (%) Calvarial cell: 99%
[2]
  ALP activity (1 μM, % of Control) Calvarial cell: 113 % of Control

## CNc1ccc([N+](=O)[O-])c(Nc2ccc(N3CCSCC3)c(F)c2)n1 [Compound 203, 2-[(3-fluoro-4-thiomorpholino)phenylamino]-6-(methylamino)-3-nitropyridine]
[1]
  Cell viability (%) Calvarial cell: 97%
[2]
  ALP activity (1 μM, % of Control) Calvarial cell: 154 % of Control

## CC(C)CNc1ccc([N+](=O)[O-])c(Nc2ccc(N3CCSCC3)c(F)c2)n1 [Compound 205, 2-[(3-fluoro-4-thiomorpholino)phenylamino]-6-(isobutylamino)-3-nitropyridine]
[1]
  Cell viability (%) Calvarial cell: 109%
[2]
  ALP activity (1 μM, % of Control) Calvarial cell: 132 % of Control

## O=[N+]([O-])c1ccc(N2CCC(O)CC2)nc1Nc1ccc(N2CCSCC2)c(F)c1 [Compound 206, 2-[(3-fluoro-4-thiomorpholino)phenylamino]-6-(4-hydroxypiperidino)-3-nitropyridine]
[1]
  Cell viability (%) Calvarial cell: 102%
[2]
  ALP activity (1 μM, % of Control) Calvarial cell: 124 % of Control

## CC(C)Nc1ccc([N+](=O)[O-])c(Nc2ccc(N3CCCCC3)c(F)c2)n1 [Compound 224, 2-[(3-fluoro-4-piperidino)phenylamino]-6-(isopropylamino)-3-nitropyridine]
[1]
  Cell viability (%) Calvarial cell: 101%
[2]
  ALP activity (1 μM, % of Control) Calvarial cell: 125 % of Control

## CC(C)Nc1ccc([N+](=O)[O-])c(Nc2ccc(N3CCC(O)CC3)c(F)c2)n1 [Compound 237, 2-{[3-fluoro-4-(4-hydroxypiperidino)]phenylamino}-6-(isopropylamino)-3-nitropyridine]
[1]
  Cell viability (%) Calvarial cell: 99%
[2]
  ALP activity (1 μM, % of Control) Calvarial cell: 117 % of Control

## O=[N+]([O-])c1ccc(N2CCC(O)CC2)nc1Nc1ccc(N2CCC(O)CC2)c(F)c1 [Compound 239, 2-{[3-fluoro-4-(4-hydroxypiperidino)]phenylamino}-6-(4-hydroxypiperidino)-3-nitropyridine]
[1]
  Cell viability (%) Calvarial cell: 98%
[2]
  ALP activity (1 μM, % of Control) Calvarial cell: 130 % of Control

— patent publication US20110306606A1, “NOVEL 2,6-SUBSTITUTED-3-NITROPYRIDINE DERIVATIVE, METHOD FOR PREPARING SAME, AND PHARMACEUTICAL COMPOSITION INCLUDING SAME” (priority 2008, published 2011)
